Measurements taken from patent US11414385B2, “Compounds and methods for treating, detecting, and identifying compounds to treat apicomplexan parasitic diseases” (The University of Chicago, priority 2015, dated 2022).
Where two headings read alike, the source gives them in different places.

Experiments:
[1] = tested on: T. gondii tachyzoites (RH-YFP strain); experiment: In vitro challenge assay for Toxoplasma tachyzoites (RH-YFP in HFF, fluorescence); assay type: cell-based, Toxoplasma gondii; details: Toxoplasma gondii; RH-YFP; read-out: Tachy IC50
Description: Human foreskin fibroblasts (HFF) were cultured on a flat, clear-bottomed, black 96-well plate to 90% to 100% confluence. IMDM (1×, [+] glutamine, [+] 25 mM HEPES, [+] Phenol red, 10% FBS [gibco, Denmark]) was removed from each well and replaced with IMDM-C (1×, [+] glutamine, [+] 25 mM HEPES, [−] Phenol red, 10% FBS)[Gibco, Denmark]). Type I RH parasites expressing Yellow Fluorescent Protein (RH-YFP) were lysed from host cells by double passage through a 27-gauge needle. Parasites were counted and diluted to 32,000/mL in IMDM-C. Fibroblast cultures were infected with 3200 tachyzoites of the Type I RH-YFP strain and returned to incubator at 37° C. for 1-2 hours to allow for infection. Diluted solutions of the compounds were made using IMDM-C, and 20 μl were added to each designated well, with triplicates for each condition. Controls included pyrimethamine/sulfadiazine (current standard of treatment), DMSO only, fibroblast only, and an untreated YFP gradient with 2 fold dilutions of the parasite. Cells were incubated at 37° C. for 72 hours. The plates were read using a fluorimeter (Synergy H4 Hybrid Reader, BioTek) To ascertain the amount of yellow fluorescent protein, in relative fluorescence units (RFU), as a measure of parasite burden after treatment. Compounds were not considered effective or pursued for further analysis if there were no signs of inhibition at 1 μM. Data was collected using Gen5 software and analyzed with Excel.
Protocol adapted from Fomovska, et. al. (18,19). Human foreskin fibroblasts (HFF) were cultured on a flat, clear-bottomed, black 96-well plate to 90% to 100% confluence. IMDM (1×, [+] glutamine, [+] 25 mM HEPES, [+] Phenol red, 10% FBS [gibco, Denmark]) was removed from each well and replaced with IMDM-C (1×, [+] glutamine, [+] 25 mM HEPES, [−] Phenol red, 10% FBS)[gibco, Denmark]). Type I RH parasites expressing Yellow Fluorescent Protein (RH-YFP) were lysed from host cells by double passage through a 27-gauge needle. Parasites were counted and diluted to 32,000/mL in IMDM-C. Fibroblast cultures were infected with 3200 tachyzoites of the Type I RH strain expressing Yellow Fluorescent Protein (RH-YFP) and returned to incubator at 37° C. for 1-2 hours to allow for infection (15). Various concentrations of the compounds were made using IMDM-C, and 20 μl were added to each designated well, with triplicates for each condition. Controls included pyrimethamine/sulfadiazine (current standard of treatment), 0.1% DMSO only, fibroblast only, and an untreated YFP gradient with 2 fold dilutions of the parasite. Cells were incubated at 37° C. for 72 hours. Plates were read using a fluorimeter (Synergy H4 Hybrid Reader, BioTek) to ascertain the amount of yellow fluorescent protein, in relative fluorescence units (RFU), as a measure of parasite burden after treatment. Data was collected using Gen5 software. IC50 was calculated by graphical analysis in Excel.
An initial screening assay of 10 μM, 1 μM, 100 nM, and 10 nM was performed. Compounds were not considered effective or pursued for further analysis if there were no signs of inhibition of tachyzoites at 1 μM. If compounds did appear to be effective at 1 μM, another experiment was conducted to assess effect at 1 μM, 500 nM, 250 nM, 125 nM, 62.5 nM, and 31.25 nM.
Protocol adapted from Fomovska, et. al. (Fomovska A, Huang Q, El Bissati K, Mui E J, Witola W H, Cheng G, et al. Novel N-Benzoyl-2-Hydroxybenzamide Disrupts Unique Parasite Secretory Pathway. Antimicrob Agents Chemother [Internet]. 2012 May [cited 2015 Jul. 8]; 56(5):2666-82; Fomovska A, Wood R D, Mui E, Dubey J P, Ferreira L R, Hickman M R, et al. Salicylanilide inhibitors of Toxoplasma gondii. J Med Chem. 2012 Oct. 11; 55(19):8375-91.). Human foreskin fibroblasts (HFF) were cultured on a flat, clear-bottomed, black 96-well plate to 90% to 100% confluence. […]

[2] = tested on: P. falciparum strains D6, TM91-C235, W2, C2B; experiment: Malaria SYBR Green I-Based Fluorescence (MSF) Assay; assay type: cell-based, Plasmodium falciparum; details: Plasmodium falciparum
Description: Testing of P. falciparum: D6 is a drug sensitive strain from Sierra Leone, C235 is a multi-drug resistant strain from Thailand, W2 is a chloroquine resistant strain from Thailand, and C2B has resistance to a variety of drugs including atovaquone.
D6 is a drug sensitive strain from Sierra Leone, C235 is a multi-drug resistant strain from Thailand, W2 is a chloroquine resistant strain from Thailand, and C2B has resistance to a variety of drugs including atovaquone. These assays were performed as described.
(§1) Compound activity against P. falciparum, a causative agent of malaria, was tested using the Malaria SYBR Green I—Based Fluorescence (MSF) Assay. This; microtiter plate drug sensitivity assay uses the presence of malarial DNA as a measure of parasitic proliferation in the presence of antimalarial drugs or experimental compounds based on modifications of previously described methods by Plouffe et al (20) and Johnson et al. As the intercalation of SYBR Green I dye and its resulting fluorescence is relative to parasite growth, a test compound that inhibits the growth of the parasite will result in a lower fluorescence.
Selected compounds were examined for activity against four strains of P. falciparum: D6 (CDC/Sierra Leone), a drug-sensitive strain readily killed by chloroquine, TM91-C235, a multi-drug resistant strain resistant to chloroquine, W2, a chloroquine resistant strain from Thailand, and C2B has resistance to a variety of drugs including atovaquone.
D6 is a drug sensitive strain from Sierra Leone, C235 is a multi-drug resistant strain from Thailand, W2 is a chloroquine resistant strain from Thailand, and C2B has resistance to a variety of drugs including atovaquone. These assays were performed using standard protocols.
as §1, with “known in the art.” for “by Plouffe et al (20) and Johnson et al.”, “fluorescence. Selected compounds were examined for activity against four strains of P. falciparum: D6 (CDC/Sierra Leone), a drugsensitive strain readily killed by chloroquine, TM91-C235, a multi-drug resistant strain resistant to chloroquine, W2, a chloroquine resistant strain from Thailand, and C2B has resistance to a variety of drugs including atovaquone.” for “fluorescence.”

[3] = C2B strain, read-out: SYBR Green C2B IC50
[4] = D6 strain, read-out: Pf D6 IC50
[5] = D6 strain, read-out: SYBR Green D6 IC50
[6] = TM91C235 strain, read-out: SYBR Green C235 IC50
[7] = W2 strain, read-out: SYBR Green W2 IC50

SMILES: Cc1[nH]c2ncnn2c(=O)c1-c1ccc(Oc2ccc(OC(F)(F)F)cc2)cc1 [MJM136, 5-methyl-6-(4-(4-(trifluoromethoxy)phenoxy)phenyl)-[1,2,4]triazolo[1,5-a]pyrimidin-7(4H)-one]
- IC50 [1]: 1000 to 10000 nM
- IC50 [2, 3]: 380 nM
- IC50 [2, 4]: 200 nM
- IC50 [2, 5]: 200 nM
- IC50 [2, 6]: 580 nM
- IC50 [2, 7]: 550 nM

SMILES: CSc1nc2[nH]c(C)c(-c3ccc(Oc4ccc(OC(F)(F)F)cc4)cc3)c(=O)n2n1 [JAG013, 5-methyl-2-(methylthio)-6-(4-(4-(trifluoromethoxy)phenoxy)phenyl)-[1,2,4]triazolo[1,5-a]pyrimidin-7(4H)-one]
- IC50 [1]: > 1000 nM
- IC50 [2, 3]: 1390 nM
- IC50 [2, 4]: 1310 nM
- IC50 [2, 5]: 1310 nM
- IC50 [2, 6]: 2600 nM
- IC50 [2, 7]: 2350 nM

SMILES: Cc1[nH]c2cc(-c3ccccc3)nn2c(=O)c1-c1ccc(Oc2ccc(OC(F)(F)F)cc2)cc1 [JAG015, 5-methyl-2-phenyl-6-(4-(4-(trifluoromethoxy)phenoxy)phenyl) pyrazolo[1,5-a]pyrimidin-7(4H)-one]
- IC50 [1]: > 1000 nM
- IC50 [2, 3]: > 20000 nM
- IC50 [2, 4]: > 20000 nM
- IC50 [2, 5]: > 20000 nM
- IC50 [2, 6]: > 20000 nM
- IC50 [2, 7]: > 20000 nM

SMILES: Cc1[nH]c2c(C#N)cnn2c(=O)c1-c1ccc(Oc2ccc(OC(F)(F)F)cc2)cc1 [JAG014, 5-methyl-7-oxo-6-(4-(4-(trifluoromethoxy)phenoxy)phenyl)-4,7-dihydropyrazolo[1,5-a]pyrimidine-3-carbonitrile]
- IC50 [1]: > 1000 nM
- IC50 [2, 3]: 920 nM
- IC50 [2, 4]: 710 nM
- IC50 [2, 5]: 710 nM
- IC50 [2, 6]: 1350 nM
- IC50 [2, 7]: 1270 nM

SMILES: Cc1cc2[nH]c(C)c(-c3ccc(Oc4ccc(OC(F)(F)F)cc4)cc3)c(=O)n2n1 [JAG006, 2,5-dimethyl-6-(4 (4-(trifluoromethoxy)phenoxy)phenyl) pyrazolo[1,5-a]pyrimidin-7(4H)-one]
- IC50 [1]: > 1000 nM
- IC50 [2, 4]: 290 nM

SMILES: Cc1[nH]c2c(c(=O)c1-c1ccc(Oc3ccc(Cl)cc3)cc1)CCCC2 [JAG50, 3-(4-(4-chlorophenoxy)phenyl)-2-methyl-5,6,7,8-tetrahydroquinolin-4(1H)-one]
- IC50 [1]: 55 nM
- IC50 [2, 4]: 46.6 nM

SMILES: Cc1[nH]c2c(c(=O)c1-c1ccc(Oc3ccc(OC(F)(F)F)cc3)cc1)CCC(C(F)(F)F)C2 (stereo not shown) [JAG162, 7-Trifluromethyl-2-methyl-3(4-(4-trifluoromethoxyphenoxy)phenyl)-5,6,7,8-tetrahydroquinolin-4(1H)-one]
- IC50 [1]: 500 nM

SMILES: Cc1[nH]c2c(c(=O)c1-c1ccc(Oc3cccc(C(F)(F)F)c3)cc1)CCCC2 [AS012/ JAG144, 2-methyl-3-(4-(3-(trifluoromethyl)phenoxy)phenyl)-5,6,7,8-tetrahydroquinolin-4(1H)-one]
- IC50 [1]: 300 nM

SMILES: O=c1[nH]c2c(c(=O)n1-c1ccc(Oc3ccccc3)cc1)CCCC2 [JAG095, 3-(4-Phenonxyphenyl)-1,2,3,4,5,6,7,8-octahydroquinazoline-2,4,dione]
- IC50 [1]: > 10000 nM
